Assays:
[1] = system: Encephalomyocarditis virus; assay: Indicates the number of animals that died and survivors lived through 21 days at 50 mg/kg against EMC virus; type: functional
Coronaviridae = assay: Indicates the number of animals that died and survivors lived through 21 days at 100 mg/kg rat corona virus; type: functional, Coronavirus
Banzi virus [2] = assay: Indicates the number of animals that died and survivors lived through 21 days at 50 mg/kg against Banzi virus; type: functional
Semliki Forest virus [3] = assay: Indicates the number of animals that died and survivors lived through 21 days at 50 mg/kg against Forest virus; type: functional
[4] = Ratio between percent survivors and the total animals taken against EMC virus infection at a dose of 25 mg/kg half-daily intraperitoneal doses at 24 and 18 hours before the virus inoculation; 8/12; type: functional
[5] = Ratio between percent survivors and the total animals taken against Banzi virus infection at a dose of 25 mg/kg half-daily intraperitoneal doses at 24 and 18 hours before the virus inoculation; 11/12; type: functional
[6] = Ratio between percent survivors and the total animals taken against Forest virus infection at a dose of 50 mg/kg half-daily intraperitoneal doses at 24 and 18 hours before the virus inoculation; 9/12; type: functional
[7] = Ratio between percent survivors and the total animals taken against rat corona virus infection at a dose of 100 mg/kg half-daily intraperitoneal doses at 24 and 18 hours before the virus inoculation; 9/12; type: functional
San Angelo virus [8] = assay: Indicates the number of animals that died and survivors lived through 21 days at 50 mg/kg against San Angelo virus; type: functional
San Angelo virus [9] = assay: Indicates the number of animals that died and survivors lived through 21 days at 25 mg/kg against San Angelo virus; type: functional
Banzi virus [10] = assay: Indicates the number of animals that died and survivors lived through 21 days at 25 mg/kg against Banzi virus; type: functional
[11] = Ratio between percent survivors and the total animals taken against Banzi virus infection at a dose of 50 mg/kg half-daily intraperitoneal doses at 24 and 18 hours before the virus inoculation; 12/12; type: functional
[12] = Ratio between percent survivors and the total animals taken against San Angelo virus infection at a dose of 25 mg/kg half-daily intraperitoneal doses at 24 and 18 hours before the virus inoculation; 11/12; type: functional
Semliki Forest virus [13] = assay: Indicates the number of animals that died and survivors lived through 21 days at 25 mg/kg against Forest virus; type: functional
[14] = system: Encephalomyocarditis virus; assay: Indicates the number of animals that died and survivors lived through 21 days at 25 mg/kg against EMC virus; type: functional
[15] = Ratio between percent survivors and the total animals taken against EMC virus infection at a dose of 50 mg/kg half-daily intraperitoneal doses at 24 and 18 hours before the virus inoculation; 9/12; type: functional
[16] = Ratio between percent survivors and the total animals taken against San Angelo virus infection at a dose of 50 mg/kg half-daily intraperitoneal doses at 24 and 18 hours before the virus inoculation; 11/12; type: functional
[17] = Ratio between percent survivors and the total animals taken against Forest virus infection at a dose of 25 mg/kg half-daily intraperitoneal doses at 24 and 18 hours before the virus inoculation; 8/12; type: functional
[18] = Evaluated for its effect by the ratio between percent survivors and the total animals taken against Forest virus infection at a dose of 25 mg/kg half-daily intraperitoneal doses at 24 and 18 hours before the virus inoculation; 9/12; type: functional
[19] = Evaluated for its effect by the ratio between percent survivors and the total animals taken against EMC virus infection at a dose of 25 mg/kg half-daily intraperitoneal doses at 24 and 18 hours before the virus inoculation; 6/12; type: functional
[20] = Evaluated for its effect by the ratio between percent survivors and the total animals taken against San Angelo virus infection at a dose of 25 mg/kg half-daily intraperitoneal doses at 24 and 18 hours before the virus inoculation; 9/12; type: functional
[21] = Evaluated for its effect by the ratio between percent survivors and the total animals taken against San Angelo virus infection at a dose of 50 mg/kg half-daily intraperitoneal doses at 24 and 18 hours before the virus inoculation; 10/12; type: functional
[22] = Evaluated for its effect by the ratio between percent survivors and the total animals taken against Banzi virus infection at a dose of 25 mg/kg half-daily intraperitoneal doses at 24 and 18 hours before the virus inoculation; 11/12; type: functional
[23] = Evaluated for its effect by the ratio between percent survivors and the total animals taken against EMC virus infection at a dose of 50 mg/kg half-daily intraperitoneal doses at 24 and 18 hours before the virus inoculation; 9/12; type: functional
[24] = Evaluated for its effect by the ratio between percent survivors and the total animals taken against Forest virus infection at a dose of 50 mg/kg half-daily intraperitoneal doses at 24 and 18 hours before the virus inoculation; 10/12; type: functional
[25] = Evaluated for its effect by the ratio between percent survivors and the total animals taken against rat corna virus infection at a dose of 100 mg/kg half-daily intraperitoneal doses at 24 and 18 hours before the virus inoculation; 7/12; type: functional
[26] = Evaluated for its effect by the ratio between percent survivors and the total animals taken against Banzi virus infection at a dose of 50 mg/kg half-daily intraperitoneal doses at 24 and 18 hours before the virus inoculation; 10/12; type: functional

Compound	Mean survival time [1] [days]	Mean survival time (Coronaviridae) [days]	Mean survival time (Banzi virus [2]) [days]	Mean survival time (Semliki Forest virus [3]) [days]	Mean survival time (San Angelo virus [8]) [days]	Mean survival time (San Angelo virus [9]) [days]	Mean survival time (Banzi virus [10]) [days]	Mean survival time (Semliki Forest virus [13]) [days]	Mean survival time [14] [days]	other results
Cn1c(=O)n(C2O[C@H](CO)[C@@H](O)[C@H]2O)c2nc(N)nc(O)c21 (stereo partly specified)	8	9.7	>21	9.7	10	12	8	8.7	8.3	Ratio [4]: 8; Ratio [5]: 11; Ratio [6]: 9; Ratio [7]: 9; Ratio [11]: 12; Ratio [12]: 11; Ratio [15]: 9; Ratio [16]: 11; Ratio [17]: 8
Cn1c(=S)n(C2O[C@H](CO)[C@@H](O)[C@H]2O)c2nc(N)nc(O)c21 (stereo partly specified)	5.7	9.4	9	9	10.5	11.3	9	8	5.5	Ratio [18]: 9; Ratio [19]: 6; Ratio [20]: 9; Ratio [21]: 10; Ratio [22]: 11; Ratio [23]: 9; Ratio [24]: 10; Ratio [25]: 7; Ratio [26]: 10

From ChEMBL document CHEMBL1125167, “Synthesis and broad-spectrum antiviral activity of 7,8-dihydro-7-methyl-8-thioxoguanosine” (1990)
